From patent US20250143995A1, “ACTIVE AGENT MODULATING THE ACTIVITY OF AN ION CHANNEL FOR USE IN REGULATION OF SKIN PIGMENTATION” (Cutaneon - Skin & Hair Innovations GmbH, priority 2022, published 2025)

Key:
Format in all cases: cell-based
gp100 = experiment: gp100-specific immunoreactivity in ex vivo human skin organ culture; details: after 3 days
Method: (§1) Samples of human abdominal, temporal, and occipital skin were obtained with written patient consent and under ethical approval from healthy adult human subjects during elective plastic surgery performed for cosmetic reasons. Full-thickness human skin samples were prepared as 4-6 mm punches, placed on filter paper, and cultured at the air-liquid interphase under serum-free conditions in William's E medium supplemented only with insulin, hydrocortisone and L-glutamine, as described previously. […]
(§2) Images were then obtained with a digital microscope (Keyence). Quantitative histomorphometric analysis was performed by assessing the relative intensity and the area of melanin stain in standardized reference areas with ImageJ (NIH; Bethesda, MD, USA). Briefly, for each parameter evaluated, multiple non-consecutive skin sections (at least 280 μm apart from each other) per punch biopsy were stained. Two skin punch biopsies were analyzed per experimental group unless indicated otherwise. The melanin content was then calculated based on the product of the fraction of area occupied by melanin and the mean shade of gray of the melanin, as described in detail elsewhere. […]

human skin organ culture [1] = experiment: Epidermal melanin by Fontana Masson histochemistry in ex vivo human skin organ culture
Method: Samples of human abdominal, temporal, and occipital skin were obtained with written patient consent and under ethical approval from healthy adult human subjects during elective plastic surgery performed for cosmetic reasons. Full-thickness human skin samples were prepared as 4-6 mm punches, placed on filter paper, and cultured at the air-liquid interphase under serum-free conditions in William's E medium supplemented only with insulin, hydrocortisone and L-glutamine, as described previously.
For topical application of 2,5-dimethylpyrazine (DMP) (Sigma), a TRPM5 activator, a stock was prepared in ethanol and dissolved at 37° C. at a final concentration of 12.5 mM in a 50% v/v solution of Isopropanol in PBS containing 1 g/mL of Polyethylene glycol 6000. For topical application of triphenylphosphine oxide (TPPO) (Sigma), and TRPM5 inhibitor, a stock was prepared in ethanol and dissolved at 37° C. at a final concentration of 1.5 mM in a 50% v/v solution of Isopropanol in PBS containing 1 g/mL of Polyethylene glycol 6000. […]
as §2
For Fontana Masson stain, ethanol/acetic acid-fixed human skin/HF frozen sections were rinsed in two and three washes of Tris-buffered saline and distilled water, respectively. […] Image acquisition and quantitative histomorphometric analysis were performed similar to as described for the Warthin-Starry technique.

tyrosinase = experiment: In situ tyrosinase activity in ex vivo human skin organ culture; details: after 3 days
Method: as §1, §2

human skin organ culture [2] = experiment: Epidermal melanin by Warthin-Starry histochemistry in ex vivo human skin organ culture; details: topical DMP 12.5 mM
Method: as §1, §2

[3] = topical DMP 12.5 mM, compared to vehicle
[4] = TPPO 1.5 mM combined with DMP 12.5 mM, topical

Structure (SMILES) | intensity level of gp100-specific IR in the basal epidermal layers (gp100; [3]) | melanin content in the basal layer and in the suprabasal layers (Fontana-Masson technique) (human skin organ culture [1]; topical DMP 12.5 mM, 3 days) | epidermal melanin content (Fontana-Masson technique) (human skin organ culture [1]; topical DMP 12.5 mM, after 3 days, compared to vehicle) | intensity level of tyrosinase activity in the basal epidermal layers (tyrosinase; [3]) | melanin content in the basal layer and in the suprabasal layers (Warthin-Starry technique) (human skin organ culture [2]; 3 days) | epidermal melanin content (Warthin-Starry technique) (human skin organ culture [2]; after 3 days, compared to vehicle) | effect on the DMP-induced increase of gp100-specific IR in the basal epidermal layers (gp100; [4]) | effect on the DMP-induced increase of epidermal melanin content (Fontana-Masson technique) (human skin organ culture [1]; TPPO 1.5 mM combined with DMP 12.5 mM, topical, after 3 days) | effect on the DMP-induced increase of tyrosinase activity in the basal epidermal layers (tyrosinase; [4])
Cc1cnc(C)cn1 [DMP, 2,5-dimethylpyrazine] | markedly increases | increased | markedly increases | markedly increases | increased | markedly increases |  |  | 
O=P(c1ccccc1)(c1ccccc1)c1ccccc1 [TPPO, triphenylphosphine oxide] |  |  |  |  |  |  | prevented the effect | prevented the effect | prevented the effect
